Where two headings read alike, the source gives them in different places.
Legend:
[1] = system: HCT116-p21RLuc-GADD153hFLuc-p53Bgal cells; experiment: Anthem's Genotox assay (reporter gene induction p21-RLuc, GADD153-hFLuc, p53-Bgal); conditions: for Anthem's Genotox assay: LEC in μg/ml (genotoxic lowest effective test concentration): at least one reporter induction above 1.5 fold threshold
Experimental: The assay protocol standardized by us is described here. A stock of the test compound is prepared in 2% v/v solvents (including but not limited to DMSO or PBS) and this stock is used to make serial dilutions for the assay. […] The test compound is assayed for cell viability by standard cell viability/cytotoxicity assays (for example MTT assay as shown in the graphs).
The MTT assay is performed using the MTT reagent (Sigma) dissolved in PBS (5 mg/ml). Briefly, the Genotox sensor cells are incubated with ten fold serial dilutions of the test compound in a 96-well microplate. After 24 h of incubation, 10 μl of the MTT solution is added to each well of the 96-well plate and incubated for 1 hour at 37° C. The medium is discarded (in a fume hood) and 100 μl DMSO is added to the wells. The plate is shaken for 10 min and absorbance is measured at 540 nm.
For the genotoxicity assay, 16 h prior to compound treatment, the engineered Anthem's Genotox sensor cells are seeded in 96-well microplates (10,000 cells per well). […] The test compound is added in two-fold serial dilutions and the microplate is incubated at 37 C, 5% CO2 and 95% humidity for 24 or 48 h depending on the experiment requirements.
The cells are lysed after 24 or 48 h with the 60 μl of lysis buffer per well (the lysis buffer composition has been optimized at Anthem Biosciences to be compatible with luciferase and beta galactosidase assays; 50 ml of Lysis buffer contains 7.5 ml of 1M HEPES at pH 8.0, 125 μl of Triton X 100, 50 mg of Porcine gelatin, 5 ml of glycerol and 25 μl of Antifoam). For each of the luciferase assays (Renilla and Firefly luciferase) 10 μl of the lysate is used, while 30 μl of the lysate is used for the beta galactosidase assay and total protein is estimated using the remaining 10 μl of the lysate by Bradford reagent.
The Renilla luciferase assay is performed using luciferase assay buffer (0.5 M NaCl, 0.1 M Potassium phosphate buffer pH 7.2, 1 mM Di-Sodium EDTA, 1 mg/mL porcine gelatin, 50 mM Potassium iodide) containing 1 μg/well coelentrazine (1 mg/ml stock prepared in 100% methanol). The firefly luciferase assay is performed with the same luciferase assay buffer containing 100 μM D luciferin, 150 μM ATP and 80 μM Coenzyme A. The assay plate is gently shaken for 10 minutes on a microplate shaker (to fully mix the contents of each well). Then the plate is taken to the microplate reader and the luminescence data are collected from the microplates. […] The Luminiscence data are collected with an integration time of 10 seconds and a delay of 2 seconds.
The beta galactosidase assay is carried out with Z assay buffer (50 ml buffer contains 0.4265 g of Na2HPO4, 0.275 g of NaH2PO4, 500 μl of 1M KCl, 50 μl of 1M MgSO4; for every 10 ml, 27 μl of Beta mercaptoethanol is added) and the substrate […] ONPG (1 ml of 10× ONPG stock-20 mg/ml). Once the yellow colour develops, 50 μl 1M Na2CO3 is added per well and the reading is taken at A420.
The luminescence and absorbance data are transported into Microsoft excel spreadsheet and the fold change in the reporter gene expressions is calculated by normalizing with the data from vehicle treated control wells. The graph is plotted with test compound concentrations on X axis, cell viability percentage (from MTT assay) on primary Y axis and reporter gene fold induction on the secondary Y axis. […] The genotoxicity threshold is not calculated for test concentrations that result in less than 50% cell viability. […]

[2] = system: HCT116-p21RLuc-GADD153hFLuc-p53Bgal cells; conditions: 24 h, MA: metabolic activation using S9 fraction mix
Experimental: The luminescence and absorbance data are transported into Microsoft excel spreadsheet and the fold change in the reporter gene expressions is calculated by normalizing with the data from vehicle treated control wells. The graph is plotted with test compound concentrations on X axis, cell viability percentage (from MTT assay) on primary Y axis and reporter gene fold induction on the secondary Y axis. […] The genotoxic threshold is set at 1.5 fold change (i.e. 50% more than vehicle treated control). The genotoxic LEC is the lowest effective test concentration that produced at least one of the reporter gene inductions of more than 1.5 threshold. The genotoxicity threshold is not calculated for test concentrations that result in less than 50% cell viability. […]
The genotoxic potential of metabolites of test compounds is assessed by incubating the compound in the Anthem's Genotox sensor cells for 3 hours with S9 of Aroclor 1254-treated rats (1% mix), procured from Moltox, Cat #11-101.5. […]
10^3 cells were seeded per well in 100 μl of McCoy's media with 10% FBS was incubated overnight (37° C., 5% CO2, 100% humidity) in a 96-well plates (as two sets). […] The plate was gently shaken for 10 minutes on a microplate shaker and then taken to the microplate reader to obtain the luminescence reading. […]

[3] = assay time 24 h, no metabolic activation

Row | Structure (SMILES) | Anthem's Genotox assay: promoter(s) that was(were) induced [1] | Anthem's Genotox assay: LEC in μg/ml (genotoxic lowest effective test concentration) [1, 3] | further results
1 | O=c1c(O)c(-c2ccc(O)c(O)c2)oc2cc(O)cc(O)c12 [Querceti3n] | GADD153 |  | 
2 | O=P1(N(CCCl)CCCl)NCCCO1 (stereo not shown) [Cyclophosphamide] |  |  | Anthem's Genotox assay: LEC in μg/ml (genotoxic lowest effective test concentration) [2]: > 55.82 µg/mL; Anthem's Genotox assay: Result (assay time in h) [2]: + (positive for genotoxicity)
3 | COc1cc([C@@H]2c3cc4c(cc3[C@@H](O[C@@H]3O[C@@H]5CO[C@@H](C)O[C@H]5[C@H](O)[C@H]3O)[C@H]3COC(=O)[C@H]23)OCO4)cc(OC)c1O [Etoposide] |  | 6.25 µg/mL | 
4 | CC1COc2c(N3CCN(C)CC3)c(F)cc3c(=O)c(C(=O)O)cn1c23 (stereo not shown) [Ofloxacin] |  | 750.0 µg/mL | Anthem's Genotox assay: Result (assay time in h) ([1]; assay time 24 h, no metabolic activation, positive when reporter gene induction over 1.5 fold): + (positive for genotoxicity)
5 | Nc1ccn([C@@H]2O[C@H](CO)[C@@H](O)[C@@H]2O)c(=O)n1 [AraC arabinoside] | p21 |  | 
